{"source": "patent US8623661B2", "about": "“Iron chelating agent, method for producing same, method for determining amount of iron ions and method for trapping iron ions” (National University Corporation Asahikawa Medical College, priority 2008, dated 2014)", "key": {"[1]": {"system": "iron citrate complex ammonium salt (FAC)", "test": "Evaluation A: chelating ability with iron, absorbance after adding chelating agent to iron citrate complex ammonium salt (FAC) solution", "type": "binding", "conditions": "for [B] absorbance after addition of iron chelating agent / [B]-[A]: 470 nm; for [B]-[A]: minus blank", "method": "Evaluation was carried out by the following evaluation method A as to whether the iron chelating agent according to Example 1 had chelating ability with iron.\n335 mg of the iron chelating agent (MW:209.2) according to Example 1 was added to a 50 mL conical tube, 15 mL of Dulbecco's phosphate buffered saline (pH 7.2;1×D-PBS) was added thereto, 70 mg of sodium hydroxide (MW:40.0) crystal was added thereto, followed by vigorously stirring (shaking) for 10 minutes, and centrifugation (1000 rpm, flashing) was carried out before the lid was opened. Then, 16.75 mL of 1×D-PBS (pH 7.2) was added thereto, and an iron chelating agent solution was prepared having a total amount of 31.75 mL.\nFurther, 1×D-PBS (pH 7.2) was added to FAC solution (20 mM) to prepare an iron citrate complex ammonium salt solution having a concentration of iron ions of 2 mM (“FAC solution (2 mM)”).\nIron citrate complex ammonium salt solution [FAC solution (20 mM), FAC solution (2 mM)]”, and 1×D-PBS (pH 7.2) were mixed at the ratios shown in Tables 1 to 2, the absorbance of the mixture (wavelength 470 nm) was measured by using a spectrophotometer (trade name “NanoDrop ND-1000 Full-spectrum UV/Vis Spectrophotometer”, manufactured by SCRUM Corporation, UV-Vis Module, Measure), and the absorbance of blank ([A] in Tables 1 to 2) was determined. Then, 158 μL of Fe-Ser•Na (50 mM) was added to the mixture, the absorbance (wavelength 470 nm) was measured as described above, and the absorbance after addition of iron chelating agent according to Examples ([B] in Tables 1 to 2) was determined."}, "[2]": {"system": "iron citrate complex ammonium salt (FAC)", "test": "Evaluation C: chelating ability in MOPS/acetonitrile solvent, FAC solution", "type": "binding", "method": "Evaluation was carried out by the following evaluation method C as to whether or not the iron chelating agent according to Examples 1 to 3 had chelating ability with iron in 3-morpholinopropanesulfonic acid (C7H15NO4S;MOPS) and acetonitrile solution as solvents used in high performance liquid chromatography (HPLC).\n2.09 g of morpholinopropanesulfonic acid (C7H15NO4S; FW=209.26, Code 341-01801, Lot PX013, manufactured by Dojindo/Wako Corporation) was added to a 100 mL Erlenmeyer flask, 80 mL of ultrapure water (pure water produced by an ultrapure water production system manufactured by Millipore Corporation (Milli-Q); “Milli-Q water”) was added thereto and dissolved [pH 4.15 (24.4° C.)]. To this solution, 1N sodium hydroxide solution (1 mol/1 sodium hydroxide solution, Code 192-02175, Lot SEP7274, manufactured by Wako Pure Chemicals Industries) was added in 100 μl portions, the pH was adjusted to 7.0 and further Milli-Q water was made up to 100 mL in a measuring cylinder, whereby 100 mL of MOPS solution (pH 6.99) was prepared.\nAn iron chelating agent solution having an iron chelating agent concentration of 50 mM was prepared with respect to the iron chelating agent according to Examples 1 to 3, in the same manner as the preparation method of the iron chelating solution in evaluation A of the iron chelating agent.\nFurther, 100 mM of MOPS solution (pH6.99) prepared by the preparation method of the MOPS solution was used.\nFurthermore, a stock solution of acetonitrile (C2H3N, FW=41.05, Code 347-06641, Lot WPI96, manufactured by Dojindo/Wako corporation) was used.\n13.8 mL of Milli-Q water was taken in a 50 mL conical tube, 1.2 mL of each of the iron chelating agent solutions (Fe-Ser•Na (50 mM), Fe-His•Na (50 mM), Fe-Glu•Na (50 mM)) according to the iron chelating agents of Examples 1 to 3 was added, 1.0 mL of 100 mM MOPS solution was added thereto, and a further 4.0 mL of acetonitrile solution was added to produce an iron chelating solution using MOPS. The iron chelating agent solutions using MOPS and iron chelating agent according to Examples 1 to 3 were defined respectively as Fe-Ser•Na (MOPS solution)” (iron chelating agent according to\nExample 1), “Fe-His•Na (MOPS solution)” (iron chelating agent according to Example 2), and “Fe-Glu•Na(MOPS solution)” (iron chelating agent according to Example 3).\nAn iron citrate complex ammonium salt solution (FAC solution (20 mM)) having a concentration of iron ions of 20 mM and an iron citrate complex ammonium salt solution (FAC solution (2 mM)) having a concentration of iron ions of 2 mM were prepared, in the same manner as the preparation method of the iron citrate complex ammonium solution in evaluation A of the iron chelating agent.\nFAC solution (20 mM) was added to and mixed with each of the iron chelating agent solutions [Fe-Ser•Na (MOPS solution), Fe-His•Na (MOPS solution), Fe-Glu•Na (MOPS solution)] using MOPS."}, "[3]": {"conditions": "FAC solution (2 mM) 0 μl + 1xD-PBS 160 μl + Fe-Ser•Na (50 mM) 158 μl"}, "[4]": {"conditions": "FAC solution (2 mM) 10 μl + 1xD-PBS 150 μl + Fe-Ser•Na (50 mM) 158 μl"}, "[5]": {"conditions": "FAC solution (2 mM) 20 μl + 1xD-PBS 140 μl + Fe-Ser•Na (50 mM) 158 μl"}, "[6]": {"conditions": "FAC solution (2 mM) 40 μl + 1xD-PBS 120 μl + Fe-Ser•Na (50 mM) 158 μl"}, "[7]": {"conditions": "FAC solution (2 mM) 80 μl + 1xD-PBS 80 μl + Fe-Ser•Na (50 mM) 158 μl"}, "[8]": {"conditions": "FAC solution (2 mM) 160 μl + 1xD-PBS 0 μl + Fe-Ser•Na (50 mM) 158 μl"}, "[9]": {"conditions": "FAC solution (20 mM) 0 μl + 1xD-PBS 160 μl + Fe-Ser•Na (50 mM) 158 μl"}, "[10]": {"conditions": "FAC solution (20 mM) 10 μl + 1xD-PBS 150 μl + Fe-Ser•Na (50 mM) 158 μl"}, "[11]": {"conditions": "FAC solution (20 mM) 20 μl + 1xD-PBS 140 μl + Fe-Ser•Na (50 mM) 158 μl"}, "[12]": {"conditions": "FAC solution (20 mM) 40 μl + 1xD-PBS 120 μl + Fe-Ser•Na (50 mM) 158 μl"}, "[13]": {"conditions": "FAC solution (20 mM) 80 μl + 1xD-PBS 80 μl + Fe-Ser•Na (50 mM) 158 μl"}, "[14]": {"conditions": "FAC solution (20 mM) 160 μl + 1xD-PBS 0 μl + Fe-Ser•Na (50 mM) 158 μl"}}, "data": [{"smiles": "O=C(O)C(CO)NCc1ccccc1O", "note": "(stereo not shown) [Example 1, o-[(1-carboxy-2-hydroxyethyl)-amino-methyl]-phenol]", "values": [{"measurement": "[B] absorbance after addition of iron chelating agent", "setting": "[1]; [3]", "value": 0.015}, {"measurement": "[B]-[A]", "setting": "[1]; [3]", "value": 0.012}, {"measurement": "[B] absorbance after addition of iron chelating agent", "setting": "[1]; [4]", "value": 0.027}, {"measurement": "[B]-[A]", "setting": "[1]; [4]", "value": 0.023}, {"measurement": "[B] absorbance after addition of iron chelating agent", "setting": "[1]; [5]", "value": 0.040}, {"measurement": "[B]-[A]", "setting": "[1]; [5]", "value": 0.035}, {"measurement": "[B] absorbance after addition of iron chelating agent", "setting": "[1]; [6]", "value": 0.055}, {"measurement": "[B]-[A]", "setting": "[1]; [6]", "value": 0.046}, {"measurement": "[B] absorbance after addition of iron chelating agent", "setting": "[1]; [7]", "value": 0.104}, {"measurement": "[B]-[A]", "setting": "[1]; [7]", "value": 0.096}, {"measurement": "[B] absorbance after addition of iron chelating agent", "setting": "[1]; [8]", "value": 1.181}, {"measurement": "[B]-[A]", "setting": "[1]; [8]", "value": 0.169}, {"measurement": "[B] absorbance after addition of iron chelating agent", "setting": "[1]; [9]", "value": 0.010}, {"measurement": "[B]-[A]", "setting": "[1]; [9]", "value": 0.010}, {"measurement": "[B] absorbance after addition of iron chelating agent", "setting": "[1]; [10]", "value": 0.109}, {"measurement": "[B]-[A]", "setting": "[1]; [10]", "value": 0.104}, {"measurement": "[B] absorbance after addition of iron chelating agent", "setting": "[1]; [11]", "value": 0.208}, {"measurement": "[B]-[A]", "setting": "[1]; [11]", "value": 0.199}, {"measurement": "[B] absorbance after addition of iron chelating agent", "setting": "[1]; [12]", "value": 0.405}, {"measurement": "[B]-[A]", "setting": "[1]; [12]", "value": 0.390}, {"measurement": "[B] absorbance after addition of iron chelating agent", "setting": "[1]; [13]", "value": 0.800}, {"measurement": "[B]-[A]", "setting": "[1]; [13]", "value": 0.771}, {"measurement": "[B] absorbance after addition of iron chelating agent", "setting": "[1]; [14]", "value": 1.368}, {"measurement": "[B]-[A]", "setting": "[1]; [14]", "value": 1.311}, {"measurement": "capture of iron ions from the iron citrate complex", "setting": "[1]; conclusion from Tables 1 to 2", "value": "iron ions can be captured"}, {"measurement": "chelating ability with iron", "setting": "[1]; conclusion from Tables 1 to 2", "value": "has chelating ability with iron"}, {"measurement": "colour of the solution after mixing", "setting": "[2]; FAC solution (2 mM) added to chelating agent MOPS solution (MOPS, acetonitrile)", "value": "dark brown-colored"}, {"measurement": "colour of the solution after mixing", "setting": "[2]; FAC solution (20 mM) added to chelating agent MOPS solution (MOPS, acetonitrile)", "value": "dark brown-colored"}]}]}
